Laboratory results from patent US20250064773A1, “TARGETING ERO1 ALPHA WITH AURONE DERIVATIVES” (West Virginia University Board of Governors on behalf of …, priority 2021, published 2025).
One block for each compound: values may come before it.

Assays:
[1] = target: T1, purified human ERO1α (Homo sapiens, UniProt Q96HE7, C104A/C131A/C166A); assay: Recombinant ERO1α enzyme assay (Amplex Red); format: biochemical; settings: for inhibition at 10 µM: average of N = 3 ± S.D., read-out: % inhibition (10 μM) of ERO1α enzyme activity compared to vehicle control
T1 construct: made in house
T1 sequence (Q96HE7 22-468 C104A/C131A/C166A): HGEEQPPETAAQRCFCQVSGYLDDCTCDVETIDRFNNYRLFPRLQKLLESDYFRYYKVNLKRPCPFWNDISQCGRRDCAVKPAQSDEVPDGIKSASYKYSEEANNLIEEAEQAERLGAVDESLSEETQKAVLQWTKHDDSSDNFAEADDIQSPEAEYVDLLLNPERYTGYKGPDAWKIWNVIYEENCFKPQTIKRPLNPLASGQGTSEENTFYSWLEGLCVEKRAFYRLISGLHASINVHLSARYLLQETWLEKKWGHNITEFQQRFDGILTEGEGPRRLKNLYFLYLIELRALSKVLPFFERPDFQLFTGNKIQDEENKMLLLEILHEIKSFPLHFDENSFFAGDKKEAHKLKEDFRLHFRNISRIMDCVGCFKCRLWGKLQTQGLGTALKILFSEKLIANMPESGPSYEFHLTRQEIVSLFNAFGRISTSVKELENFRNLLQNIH
Description: Based on previous work which established an aurone chemical class of compounds as FAD containing enzyme inhibitors^37, we evaluated sulfuretin analogs for ERO1α enzyme inhibition.
Quantification of enzymatic activity of ERO1α was performed using the Amplex Red as previously described^6.

[2] = target: T2, MAO-B (Homo sapiens, UniProt P27338); settings: cited from earlier work
T2 sequence (P27338 1-520): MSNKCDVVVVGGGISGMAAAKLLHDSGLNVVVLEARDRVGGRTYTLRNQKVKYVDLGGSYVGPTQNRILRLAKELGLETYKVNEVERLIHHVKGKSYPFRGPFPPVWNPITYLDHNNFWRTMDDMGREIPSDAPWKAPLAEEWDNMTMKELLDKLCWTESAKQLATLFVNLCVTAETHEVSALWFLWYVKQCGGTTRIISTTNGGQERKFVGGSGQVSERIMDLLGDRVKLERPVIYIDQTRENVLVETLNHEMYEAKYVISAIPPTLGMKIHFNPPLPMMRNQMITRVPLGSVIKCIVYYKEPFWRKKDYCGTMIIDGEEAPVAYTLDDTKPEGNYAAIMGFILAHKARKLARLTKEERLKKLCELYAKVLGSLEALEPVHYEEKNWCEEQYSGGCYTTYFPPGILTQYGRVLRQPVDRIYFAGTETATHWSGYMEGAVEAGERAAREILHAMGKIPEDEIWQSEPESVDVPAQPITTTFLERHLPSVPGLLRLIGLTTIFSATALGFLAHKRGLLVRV

[3] = target: T3, MAO-A (Homo sapiens, UniProt P21397); settings: cited from earlier work
T3 sequence (P21397 1-527): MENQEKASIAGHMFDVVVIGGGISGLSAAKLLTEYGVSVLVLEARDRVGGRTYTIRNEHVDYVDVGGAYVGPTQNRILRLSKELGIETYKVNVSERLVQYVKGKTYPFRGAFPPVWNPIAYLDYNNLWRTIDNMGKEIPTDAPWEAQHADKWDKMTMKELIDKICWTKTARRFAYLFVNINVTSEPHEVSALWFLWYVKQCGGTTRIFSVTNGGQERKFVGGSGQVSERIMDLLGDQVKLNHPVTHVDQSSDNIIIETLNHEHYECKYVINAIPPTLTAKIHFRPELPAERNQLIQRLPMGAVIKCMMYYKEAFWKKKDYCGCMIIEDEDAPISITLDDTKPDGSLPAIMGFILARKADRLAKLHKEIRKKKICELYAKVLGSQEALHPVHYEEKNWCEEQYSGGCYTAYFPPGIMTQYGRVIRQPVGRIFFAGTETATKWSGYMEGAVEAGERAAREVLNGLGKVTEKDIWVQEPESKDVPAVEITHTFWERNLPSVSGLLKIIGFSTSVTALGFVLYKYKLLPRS

[4] = tested on: PC-9 cells; assay: Soft agar clonogenic assay, PC-9; format: cell-based; settings: 14 days, 3.75-15 μM
Description: (§1) We utilized an MTT assay to determine the potency of the compounds for inhibiting cell growth. […] We next asked whether T151742 induced inhibition of cell growth was dependent on ERO1α expression. As shown in FIG. 6C two ERO1α deleted clones in the PC-9 cell line were isolated. Using an MTT assay to determine overall cellar viability, a non-targeted control (scramble), and both ERO1α knockout clones was subjected to treatment with T151742 for 72 hours (See FIG. 6D). […] Though only slight differences were observed between T151742 and EN-460 we tested the effects of these compounds in a clonogenic assay which is a better test for inhibition of self-renewal.
FIG. 7A and FIG. 7B show 1000 cells/well were plated in a 12-well plate in triplicate with either 0.5% DMSO, T151742, or EN-460 and allowed to form colonies for 14 days. Colonies were subsequently stained with 0.01% Crystal Violet, imaged, and quantified using ImageJ. […] Colonies were stained with 0.01% Crystal Violet, imaged, and quantified using ImageJ.
Cell Lines: PC-9 cell line used was obtained from Sigma Aldrich and grown in RPMI 1640 medium with 10% fetal bovine serum and 1% penicillin/streptomycin. […] Plate was then read on the BioTek Cytation 5 at 530/590 nm. […] Plate was then read at 570 nm. […] Images were then quantified using ImageJ. […]

[5] = target: LSD-1 (Homo sapiens, UniProt O60341); settings: cited from earlier work
[6] = tested on: PC-9 non-small cell lung cancer cell line; assay: MTT viability assay, PC-9; format: cell-based; settings: 72 h, read-out: IC50, MTT assay, PC-9
Description: as §1
Cell Lines: PC-9 cell line used was obtained from Sigma Aldrich and grown in RPMI 1640 medium with 10% fetal bovine serum and 1% penicillin/streptomycin. HCC4006, U266, MM1.s, and Beas-2B cell lines were obtained from ATCC and cultured in either RPMI 1640 or DMEM with 10% fetal bovine serum and 1% penicillin/streptomycin. All cell lines were also checked for mycoplasma every six months and subjected to short tandem repeat (STR) analysis for cell line validation. CRISPR Cas9: CRISPR Guide RNA 2 targeting ERO1α and CRISPR Guide RNA 4 were purchased from Genscript in the pLentiCRISPR V2 plasmid containing puromycin/ampicillin selection marker. Lentivirus was made from HEK 293T cells by co-transfection with GuideRNA of interest, pVSVG, and pPAX2 plasmids. Lentivirus was collected after 48 hours and concentrated using 40% PEG8000. […] Plate was then read on the BioTek Cytation 5 at 530/590 nm. […] Plate was then read at 570 nm. Treated wells were all compared to DMSO control wells to calculate percent growth inhibition and the IC50 was calculated using GraphPad (log(inhibitor) vs growth inhibition). […] Images were then quantified using ImageJ. […] Cells were aliquoted at 1 million cells per PCR tube in PBS and heated in Bio-Rad T100 thermal cycler at indicated temperatures (RT, 46° C., 48° C., 50° C., 52° C., 54° C., 56°, 58° C., and 60° C.) for 3 minutes and aggregation temperature was determined by western blot analysis. […]

SMILES: N[C@@H]1C[C@H]1c1ccccc1 (racemic) [tranylcypromine, reference compound]
inhibition of ERO1α activity (concentration response, FIG. 8) ([1]; covalent modifiers of FAD): did not inhibit

SMILES: O=C(O)c1cc(N2N=C(C(F)(F)F)/C(=C/c3ccc(-c4ccccc4)o3)C2=O)ccc1Cl [EN-460, reference compound]
inhibition of / activity against MAO-B [2]: inhibits
inhibition of / activity against MAO-A [3]: inhibits
activity in clonogenicity assay (colony number) [4]: devoid of activity
inhibition of LSD-1 [5]: inhibits
IC50 ([1]; purified human ERO1α 0.0625 mg/mL, PDI 0.0625 mg/mL, mean ± S.D., N=3): 16.5 ± 3.47 µM

IC50 [6]: 32.4 ± 6.01 µM
SMILES: O=C(O)c1ccc(/C=C2\Oc3cc(O)ccc3C2=O)cc1 [SR-F-114]

inhibition at 10 µM [1]: 20.7 ± 4.92%
SMILES: O=C1/C(=C/c2c(F)cccc2Cl)Oc2cc(O)ccc21 [SR-F-125]

inhibition at 10 µM [1]: 38.7 ± 1.56%
SMILES: O=C1/C(=C/c2ccc(-c3ccccc3)cc2)Oc2cc(O)ccc21 [SR-F-126]
